This experiment relates to HepG2 + U0126, LDLR mRNA qRT-PCR, 6 h. Description: LDLR mRNA induction under MEK blockade, late-stage follow-up, mechanism study for Trib1 inducer project, cell-based, HepG2, U0126, RT-PCR (AID 1053163). To be noted: active compounds read high.

Turning to `CN1C(=O)c2cc(NC(=O)c3ccc(C(F)(F)F)cc3)ccc2OC[C@@H]2O[C@H](CC(=O)NC3Cc4ccccc4C3)CC[C@@H]21`, the LDLR mRNA fold induction was 2.5.

Regarding `CN1C(=O)c2cc(NC(=O)c3ccc(C(F)(F)F)cc3)ccc2OC[C@@H]2O[C@@H](CC(=O)NC3Cc4ccccc4C3)CC[C@@H]21`, the LDLR mRNA fold induction is 10.

These data come from PubChem BioAssay AID1053163 (Broad Institute, 2014).
